This passage reports GC retention time and collision cross section results from the supplement of paper PMC11923942.

The nature of data set [1]: GC retention time (DB-5MS, GC-APCI); higher = later elution. As to the method:
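Standards of hydrophobic organic contaminants were analysed by GC-APCI (positive mode, dry or wet source conditions) coupled to cyclic ion mobility-QTOF MS. CCS was measured for the base ion (sometimes a fragment ion) in N2 drift gas (one-pass mode, calibrated with a Waters 22-compound mix). 5 mL/min).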

Data set [2] is described as follows: collision cross section (N2, base ion); higher = larger ion cross section. As to the method:
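Standards of hydrophobic organic contaminants were analysed by GC-APCI (positive mode, dry or wet source conditions) coupled to cyclic ion mobility-QTOF MS. CCS was measured for the base ion (sometimes a fragment ion) in N2 drift gas (one-pass mode, calibrated with a Waters 22-compound mix).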

The compound `c1ccc2c(c1)-c1cccc3cccc-2c13` [Fluoranthene] (APCI source condition: Dry, base ion: M+.) yielded a GC retention time in data set [1] of 18.4 min. This compound registered a collision cross section in data set [2] of 138.02 Å².

Compound `CCCCC(CC)COP(=O)(Oc1ccccc1)Oc1ccccc1` (stereo not drawn) [2-Ethylhexyl diphenyl phosphate] (APCI source condition: Wet, base ion: [M-C8H15]+) registered a GC retention time in data set [1] of 21.3 min. In data set [2], this compound yielded a collision cross section of 149.25 Å².

For the compound `c1cc2ccc3ccc4ccc5cccc6c(c1)c2c3c4c56` [Benzo(g,h,i)perylene] (APCI source condition: Dry, base ion: M+.), the GC retention time in data set [1] was 27.1 min. In data set [2], this compound yielded a collision cross section of 150.71 Å².

`CC(CCl)OP(=O)(OC(C)CCl)OC(C)CCl` (stereo not drawn) [Tris(1-chloro-2-propyl)phosphate] (APCI source condition: Wet, base ion: [M-C3H4Cl]+) had a GC retention time in data set [1] of 15.4 min. In data set [2], this compound gave a collision cross section of 160.76 Å².

As for `Clc1ccc(Cl)c(-c2cc(Cl)c(Cl)cc2Cl)c1` [PCB 101] (APCI source condition: Dry, base ion: M+.), the GC retention time in data set [1] stood at 18.8 min. In data set [2], this compound returned a collision cross section of 155.45 Å².

In turn, `Brc1ccc(Oc2ccc(Br)c(Br)c2)cc1Br` [PBDE 77] (APCI source condition: Dry, base ion: M+.) returned a GC retention time in data set [1] of 23 min. Also, the collision cross section in data set [2] is 164.62 Å².

Consider `Clc1ccc(Cl)c(-c2c(Cl)c(Cl)c(Cl)c(Cl)c2Cl)c1Cl` [PCB 200] (APCI source condition: Dry, base ion: M+.), for which the GC retention time in data set [1] was 22.2 min. Moreover, the collision cross section in data set [2] is 167.33 Å².

Compound `c1ccc2cc3c(ccc4ccccc43)cc2c1` [Benzo(a)anthracene] (APCI source condition: Dry, base ion: M+.) displayed a GC retention time in data set [1] of 21.8 min. The same compound showed a collision cross section in data set [2] of 140.47 Å².

`Clc1cc(Cl)c(-c2ccc(Cl)c(Cl)c2Cl)cc1Cl` [PCB 138] (APCI source condition: Dry, base ion: M+.): the GC retention time in data set [1] was determined as 20.8 min. In data set [2], this compound yielded a collision cross section of 159.68 Å².

For the compound `ClC(Cl)=C(c1ccc(Cl)cc1)c1ccc(Cl)cc1` [4,4'-DDE] (APCI source condition: Dry, base ion: M+.), the GC retention time in data set [1] was 19.3 min. The collision cross section in data set [2] was 159.06 Å².

`Clc1ccc(Cl)c(-c2c(Cl)ccc(Cl)c2Cl)c1Cl` [PCB136] (APCI source condition: Dry, base ion: M+.) returned a GC retention time in data set [1] of 19.4 min. The same compound gave a collision cross section in data set [2] of 155.08 Å².

In turn, `Clc1ccccc1-c1ccccc1Cl` [PCB 4] (APCI source condition: Dry, base ion: M+.) came in with a GC retention time in data set [1] of 13.6 min. The collision cross section in data set [2] was determined as 137.64 Å².

In turn, `Clc1ccc(-c2ccc(Cl)cc2Cl)cc1` [PCB 28] (APCI source condition: Dry, base ion: M+.) returned a GC retention time in data set [1] of 16.4 min. The collision cross section in data set [2] came to 142.54 Å².

`ClC1=C(Cl)[C@]2(Cl)[C@H]3[C@H]([C@H]4C=C[C@@H]3C4)[C@@]1(Cl)C2(Cl)Cl` [Isodrin] (APCI source condition: Dry, base ion: M+.) displayed a GC retention time in data set [1] of 18 min. Moreover, the collision cross section in data set [2] came to 150.98 Å².

`O=P(OC(CCl)CCl)(OC(CCl)CCl)OC(CCl)CCl` [Tris(1,3-dichloropropan-2-yl) phosphate] (APCI source condition: Wet, base ion: [M+H]+) displayed a GC retention time in data set [1] of 20.4 min. This compound registered a collision cross section in data set [2] of 175.08 Å².

Take `Brc1ccc(Oc2c(Br)cc(Br)cc2Br)c(Br)c1` [PBDE 100] (APCI source condition: Dry, base ion: M+.): the GC retention time in data set [1] stood at 23.7 min. The collision cross section in data set [2] amounted to 169.85 Å².

In turn, `Brc1cc(Br)c(Oc2c(Br)cc(Br)c(Br)c2Br)cc1Br` [PBDE 183] (APCI source condition: Dry, base ion: M+.) gave a GC retention time in data set [1] of 28.2 min. In data set [2], this compound returned a collision cross section of 184.97 Å².

The compound `c1ccc2c(c1)ccc1cc3c(ccc4ccccc43)cc12` [Dibenzo(a,h)anthracene] (APCI source condition: Dry, base ion: M+.) displayed a GC retention time in data set [1] of 27.2 min. The compound further registered a collision cross section in data set [2] of 154.91 Å².

In data set [1], `c1ccc2c(c1)sc1ccccc12` [Dibenzothiophene] (APCI source condition: Dry, base ion: M+.) displayed a GC retention time of 15.2 min. This compound also showed a collision cross section in data set [2] of 137.55 Å².

`O=S1OC[C@@H]2[C@H](CO1)[C@]1(Cl)C(Cl)=C(Cl)[C@]2(Cl)C1(Cl)Cl` (stereo partly drawn) [β-Endosulfan] (APCI source condition: Wet, base ion: [M+H]+): the GC retention time in data set [1] amounted to 20 min. This compound also came in with a collision cross section in data set [2] of 162.35 Å².

As for `c1ccc2c(c1)ccc1ccc3ccccc3c12` [Benzo(c)phenanthrene] (APCI source condition: Dry, base ion: M+.), in data set [1], the GC retention time turned out to be 21.3 min. The collision cross section in data set [2] is 140.99 Å².

The compound `Clc1ccc(-c2cc(Cl)c(Cl)cc2Cl)cc1Cl` [PCB 118] (APCI source condition: Dry, base ion: M+.) yielded a GC retention time in data set [1] of 19.9 min. The collision cross section in data set [2] turned out to be 156.06 Å².

For the compound `Brc1ccc(Br)c(Oc2c(Br)c(Br)c(Br)c(Br)c2Br)c1` [PBDE 185] (APCI source condition: Dry, base ion: M+.), in data set [1], the GC retention time was found to be 28.6 min. The collision cross section in data set [2] was determined as 182.95 Å².

In turn, `Clc1cc(Cl)c(-c2c(Cl)c(Cl)cc(Cl)c2Cl)cc1Cl` [PCB 187] (APCI source condition: Dry, base ion: M+.) had a GC retention time in data set [1] of 21.1 min. Moreover, the collision cross section in data set [2] amounted to 165.54 Å².

Take `Brc1cc(Oc2c(Br)cc(Br)c(Br)c2Br)cc(Br)c1Br` [PBDE 191] (APCI source condition: Dry, base ion: M+.): in data set [1], the GC retention time was found to be 29 min. For the same compound, in data set [2], the collision cross section amounted to 187.91 Å².

Take `Clc1ccc(Cl)c(-c2cc(Cl)ccc2Cl)c1` [PCB 52] (APCI source condition: Dry, base ion: M+.): the GC retention time in data set [1] is 17.1 min. For the same compound, the collision cross section in data set [2] was determined as 149.21 Å².

Regarding `Brc1cccc(Oc2ccc(Br)c(Br)c2)c1` [PBDE 35] (APCI source condition: Dry, base ion: M+.), in data set [1], the GC retention time was determined as 20.3 min. The same compound returned a collision cross section in data set [2] of 154.86 Å².

Take `Clc1ccc(C(c2ccc(Cl)cc2)C(Cl)Cl)cc1` [4,4'-DDD] (APCI source condition: Dry, base ion: [M-CHCl2]+): the GC retention time in data set [1] amounted to 20.1 min. In data set [2], this compound registered a collision cross section of 142.2 Å².

On to `Clc1ccc(-c2ccccc2)cc1` [PCB 3] (APCI source condition: Dry, base ion: M+.), for which the GC retention time in data set [1] was determined as 13.2 min. The compound further registered a collision cross section in data set [2] of 137.62 Å².

For the compound `c1ccc2cc3ccccc3cc2c1` [Anthracene] (APCI source condition: Dry, base ion: M+.), in data set [1], the GC retention time was 15.7 min. In data set [2], the collision cross section is recorded as 138 Å².

The compound `Clc1ccc(C(c2ccc(Cl)cc2)C(Cl)(Cl)Cl)cc1` [4,4'-DDT] (APCI source condition: Dry, base ion: [M-CCl3]+) returned a GC retention time in data set [1] of 20.8 min. Also, in data set [2], the collision cross section is listed as 140.31 Å².

On to `CCCCCCCCCCCCCCC=CC(F)(F)C(F)(F)C(F)(F)C(F)(F)C(F)(F)C(F)(F)C(F)(F)C(F)(F)C(F)(F)C(F)(F)C(F)(F)C(F)(F)F` [1-(Perfluorododecyl)-hexadec-1-ene] (APCI source condition: Dry, base ion: [M-H]+), for which, in data set [1], the GC retention time is 18 min. In data set [2], this compound came in with a collision cross section of 255.25 Å².

Regarding `Brc1cc(Br)c(Br)c(Br)c1Br` [Pentabromobenzene] (APCI source condition: Dry, base ion: M+.), the GC retention time in data set [1] turned out to be 18.5 min. In data set [2], this compound yielded a collision cross section of 135.24 Å².

In the case of `c1ccc2c(c1)ccc1ccccc12` [Phenanthrene] (APCI source condition: Dry, base ion: M+.), the GC retention time in data set [1] was found to be 15.6 min. In data set [2], this compound came in with a collision cross section of 137.89 Å².

In data set [1], `Brc1ccc(Oc2cc(Br)ccc2Br)c(Br)c1` [PBDE 49] (APCI source condition: Dry, base ion: M+.) gave a GC retention time of 21.8 min. Further, the collision cross section in data set [2] was found to be 163.07 Å².

`Clc1cc(Cl)c(-c2c(Cl)ccc(Cl)c2Cl)cc1Cl` [PCB 149] (APCI source condition: Dry, base ion: M+.) registered a GC retention time in data set [1] of 19.8 min. Also, in data set [2], the collision cross section was 158.29 Å².

In data set [1], `Brc1cc(Br)c(Oc2c(Br)cc(Br)c(Br)c2Br)c(Br)c1` [PBDE 184] (APCI source condition: Dry, base ion: M+.) had a GC retention time of 27.8 min. For the same compound, the collision cross section in data set [2] is on record as 181.4 Å².

As to `Brc1cc(Br)c(OCCOc2c(Br)cc(Br)cc2Br)c(Br)c1` [1,2-Bis(2,4,6-tribromophenoxy)ethane] (APCI source condition: Dry, base ion: M+.), the GC retention time in data set [1] is 29 min. Further, in data set [2], the collision cross section amounted to 186.57 Å².

`Brc1ccc(Oc2ccc(Br)c(Br)c2Br)c(Br)c1` [PBDE 85] (APCI source condition: Dry, base ion: M+.): in data set [1], the GC retention time amounted to 25 min. This compound came in with a collision cross section in data set [2] of 170.22 Å².
